# Laboratory results: ChEMBL document CHEMBL1201862, “PubChem BioAssay data set” (2004)
# Activity calls are given as the source filed them.
# Key:
# [1] = target: T1, Low molecular weight phosphotyrosine protein phosphatase (Homo sapiens, UniProt P24666); assay type: functional; details: read-out: IC50_Mean
# T1 sequence (P24666 whole entry): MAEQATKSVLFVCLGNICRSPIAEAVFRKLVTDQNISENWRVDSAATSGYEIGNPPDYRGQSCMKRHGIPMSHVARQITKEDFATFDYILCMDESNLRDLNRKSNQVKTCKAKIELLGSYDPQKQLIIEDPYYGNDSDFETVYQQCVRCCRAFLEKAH
# [2] = target: T1, Low molecular weight phosphotyrosine protein phosphatase; assay type: functional; details: read-out: IC50_Mean; remark: listed apart in the source
# Galanin receptor type 3 = Galanin receptor type 3 (Homo sapiens, UniProt O60755); experiment: Fluorescence-based cell-based primary high throughput dose response assay to identify antagonists of the Galanin Receptor 3 (GalR3).; assay type: functional
# cells = assay type: functional, cell-based; details: HEK-CNG
# [3] = inhibitors of intracellular T. cruzi replication, confirmation, NIH3T3 host cells, beta-gal luminescence (AID 2044); assay type: functional, cell-based;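 further: intracellular parasites grown in NIH/3T3 mouse fibroblasts as host cells; luminescent beta-galactosidase reporter signal from transgenic T. cruzi replicating inside host cells; inhibitors lower the luminescence signal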
# [4] = cytotoxicity toward NIH3T3 fibroblasts, dose response, counter-screen, cell-based, ATP luminescence, mouse fibroblasts (AID 2010); assay type: functional;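 further: cells exposed to compound for about 90 hours before reading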
# [5] = target: T2, Probable nicotinate-nucleotide adenylyltransferase (Staphylococcus aureus (strain N315), UniProt P65502); assay type: functional, Staphylococcus aureus subsp. aureus N315;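 on IC50 Mean: confirmatory dose-response retesting of NadD inhibitor hits first found in an ultra-high-throughput screen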
# [6] = target: T2, Probable nicotinate-nucleotide adenylyltransferase; assay type: functional, Staphylococcus aureus subsp. aureus N315; details: read-out: IC50_Mean
# Beta-lactamase [7] = target: Beta-lactamase (Salmonella choleraesuis (strain SC-B67), UniProt Q5J463); experiment: Epi-absorbance-based counterscreen for selective VIM-2 inhibitors: dose response biochemical high throughput screening assay to identify inhibitors of TEM-1 serine-beta-lactamase.
# Beta-lactamase [8] = target: T3, Beta-lactamase (Pseudomonas aeruginosa, UniProt Q79MP6); experiment: IMP-1 metallo-beta-lactamase inhibitors, dose response, selectivity assay for VIM-2 inhibitor project, biochemical, epi-absorbance (AID 1920)
# Beta Lactamase [9] = target: T4, Beta Lactamase (Pseudomonas aeruginosa, UniProt Q932Y6); experiment: VIM-2 metallo-beta-lactamase inhibitor potency, dose response, biochemical, epi-absorbance readout, selective inhibitors (AID 1919)
# Beta-lactamase [10] = target: T3, Beta-lactamase; experiment: […] counterscreen for selective VIM-2 inhibitors: dose response biochemical high throughput screening assay to identify inhibitors of IMP-1 metallo-beta-lactamase.
# Beta Lactamase [11] = target: T4, Beta Lactamase; experiment: VIM-2 inhibitor FRET-based artefact check, dose response, artefact control for selective VIM-2 inhibitor project, biochemical, FRET readout, CCF2 substrate (AID 1926)
# Fatty acid synthase = Fatty acid synthase (Homo sapiens, UniProt P49327); experiment: FAS thioesterase domain inhibitors, SAR follow-up, biochemical, endpoint fluorescence intensity, powder samples (AID 652164); assay type: functional
# A549 = experiment: A549 cell toxicity, dose response, cytotoxicity control, plate reader, cherry-pick samples (AID 687028); assay type: functional, cell-based; details: Homo sapiens
# T3 sequence (Q79MP6 whole entry): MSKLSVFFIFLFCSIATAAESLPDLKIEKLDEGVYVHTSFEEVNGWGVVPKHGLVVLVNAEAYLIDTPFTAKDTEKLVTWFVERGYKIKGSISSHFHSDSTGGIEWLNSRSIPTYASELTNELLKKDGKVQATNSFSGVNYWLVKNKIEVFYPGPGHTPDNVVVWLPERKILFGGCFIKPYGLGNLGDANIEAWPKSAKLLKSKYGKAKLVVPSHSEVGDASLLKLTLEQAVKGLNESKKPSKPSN
# T4 sequence (Q932Y6 whole entry): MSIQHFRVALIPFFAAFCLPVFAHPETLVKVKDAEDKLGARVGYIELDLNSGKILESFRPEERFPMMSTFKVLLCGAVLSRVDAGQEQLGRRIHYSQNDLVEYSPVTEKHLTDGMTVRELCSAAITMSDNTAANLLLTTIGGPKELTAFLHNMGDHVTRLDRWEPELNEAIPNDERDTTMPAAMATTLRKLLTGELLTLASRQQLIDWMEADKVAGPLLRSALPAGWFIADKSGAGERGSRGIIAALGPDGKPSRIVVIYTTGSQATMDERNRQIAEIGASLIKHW
# T2 sequence (P65502 whole entry): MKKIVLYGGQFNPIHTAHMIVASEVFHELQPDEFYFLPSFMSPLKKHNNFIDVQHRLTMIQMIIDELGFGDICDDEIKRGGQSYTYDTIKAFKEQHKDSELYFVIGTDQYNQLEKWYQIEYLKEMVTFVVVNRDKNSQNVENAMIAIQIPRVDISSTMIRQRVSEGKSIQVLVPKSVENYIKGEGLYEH
# Sequence of Beta-lactamase (Salmonella choleraesuis (strain SC-B67), UniProt Q5J463) (Q5J463 whole entry): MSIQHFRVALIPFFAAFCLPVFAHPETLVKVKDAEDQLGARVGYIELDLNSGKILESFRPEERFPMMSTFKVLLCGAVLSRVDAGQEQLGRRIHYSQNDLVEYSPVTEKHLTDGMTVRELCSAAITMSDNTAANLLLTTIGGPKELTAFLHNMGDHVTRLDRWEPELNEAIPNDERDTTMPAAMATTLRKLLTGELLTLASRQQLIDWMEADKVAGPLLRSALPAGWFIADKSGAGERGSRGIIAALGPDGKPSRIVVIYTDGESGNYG
# Sequence of Galanin receptor type 3 (O60755 whole entry): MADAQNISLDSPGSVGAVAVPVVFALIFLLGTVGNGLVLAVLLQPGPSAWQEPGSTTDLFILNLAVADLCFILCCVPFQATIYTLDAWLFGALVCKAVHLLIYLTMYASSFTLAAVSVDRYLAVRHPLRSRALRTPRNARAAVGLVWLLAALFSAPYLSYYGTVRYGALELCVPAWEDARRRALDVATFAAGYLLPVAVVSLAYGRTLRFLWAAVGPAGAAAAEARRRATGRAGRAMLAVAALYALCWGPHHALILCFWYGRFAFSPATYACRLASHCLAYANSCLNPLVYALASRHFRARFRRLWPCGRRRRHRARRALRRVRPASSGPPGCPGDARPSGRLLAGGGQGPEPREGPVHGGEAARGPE
# Sequence of Fatty acid synthase (P49327 whole entry, the tested form may be a part): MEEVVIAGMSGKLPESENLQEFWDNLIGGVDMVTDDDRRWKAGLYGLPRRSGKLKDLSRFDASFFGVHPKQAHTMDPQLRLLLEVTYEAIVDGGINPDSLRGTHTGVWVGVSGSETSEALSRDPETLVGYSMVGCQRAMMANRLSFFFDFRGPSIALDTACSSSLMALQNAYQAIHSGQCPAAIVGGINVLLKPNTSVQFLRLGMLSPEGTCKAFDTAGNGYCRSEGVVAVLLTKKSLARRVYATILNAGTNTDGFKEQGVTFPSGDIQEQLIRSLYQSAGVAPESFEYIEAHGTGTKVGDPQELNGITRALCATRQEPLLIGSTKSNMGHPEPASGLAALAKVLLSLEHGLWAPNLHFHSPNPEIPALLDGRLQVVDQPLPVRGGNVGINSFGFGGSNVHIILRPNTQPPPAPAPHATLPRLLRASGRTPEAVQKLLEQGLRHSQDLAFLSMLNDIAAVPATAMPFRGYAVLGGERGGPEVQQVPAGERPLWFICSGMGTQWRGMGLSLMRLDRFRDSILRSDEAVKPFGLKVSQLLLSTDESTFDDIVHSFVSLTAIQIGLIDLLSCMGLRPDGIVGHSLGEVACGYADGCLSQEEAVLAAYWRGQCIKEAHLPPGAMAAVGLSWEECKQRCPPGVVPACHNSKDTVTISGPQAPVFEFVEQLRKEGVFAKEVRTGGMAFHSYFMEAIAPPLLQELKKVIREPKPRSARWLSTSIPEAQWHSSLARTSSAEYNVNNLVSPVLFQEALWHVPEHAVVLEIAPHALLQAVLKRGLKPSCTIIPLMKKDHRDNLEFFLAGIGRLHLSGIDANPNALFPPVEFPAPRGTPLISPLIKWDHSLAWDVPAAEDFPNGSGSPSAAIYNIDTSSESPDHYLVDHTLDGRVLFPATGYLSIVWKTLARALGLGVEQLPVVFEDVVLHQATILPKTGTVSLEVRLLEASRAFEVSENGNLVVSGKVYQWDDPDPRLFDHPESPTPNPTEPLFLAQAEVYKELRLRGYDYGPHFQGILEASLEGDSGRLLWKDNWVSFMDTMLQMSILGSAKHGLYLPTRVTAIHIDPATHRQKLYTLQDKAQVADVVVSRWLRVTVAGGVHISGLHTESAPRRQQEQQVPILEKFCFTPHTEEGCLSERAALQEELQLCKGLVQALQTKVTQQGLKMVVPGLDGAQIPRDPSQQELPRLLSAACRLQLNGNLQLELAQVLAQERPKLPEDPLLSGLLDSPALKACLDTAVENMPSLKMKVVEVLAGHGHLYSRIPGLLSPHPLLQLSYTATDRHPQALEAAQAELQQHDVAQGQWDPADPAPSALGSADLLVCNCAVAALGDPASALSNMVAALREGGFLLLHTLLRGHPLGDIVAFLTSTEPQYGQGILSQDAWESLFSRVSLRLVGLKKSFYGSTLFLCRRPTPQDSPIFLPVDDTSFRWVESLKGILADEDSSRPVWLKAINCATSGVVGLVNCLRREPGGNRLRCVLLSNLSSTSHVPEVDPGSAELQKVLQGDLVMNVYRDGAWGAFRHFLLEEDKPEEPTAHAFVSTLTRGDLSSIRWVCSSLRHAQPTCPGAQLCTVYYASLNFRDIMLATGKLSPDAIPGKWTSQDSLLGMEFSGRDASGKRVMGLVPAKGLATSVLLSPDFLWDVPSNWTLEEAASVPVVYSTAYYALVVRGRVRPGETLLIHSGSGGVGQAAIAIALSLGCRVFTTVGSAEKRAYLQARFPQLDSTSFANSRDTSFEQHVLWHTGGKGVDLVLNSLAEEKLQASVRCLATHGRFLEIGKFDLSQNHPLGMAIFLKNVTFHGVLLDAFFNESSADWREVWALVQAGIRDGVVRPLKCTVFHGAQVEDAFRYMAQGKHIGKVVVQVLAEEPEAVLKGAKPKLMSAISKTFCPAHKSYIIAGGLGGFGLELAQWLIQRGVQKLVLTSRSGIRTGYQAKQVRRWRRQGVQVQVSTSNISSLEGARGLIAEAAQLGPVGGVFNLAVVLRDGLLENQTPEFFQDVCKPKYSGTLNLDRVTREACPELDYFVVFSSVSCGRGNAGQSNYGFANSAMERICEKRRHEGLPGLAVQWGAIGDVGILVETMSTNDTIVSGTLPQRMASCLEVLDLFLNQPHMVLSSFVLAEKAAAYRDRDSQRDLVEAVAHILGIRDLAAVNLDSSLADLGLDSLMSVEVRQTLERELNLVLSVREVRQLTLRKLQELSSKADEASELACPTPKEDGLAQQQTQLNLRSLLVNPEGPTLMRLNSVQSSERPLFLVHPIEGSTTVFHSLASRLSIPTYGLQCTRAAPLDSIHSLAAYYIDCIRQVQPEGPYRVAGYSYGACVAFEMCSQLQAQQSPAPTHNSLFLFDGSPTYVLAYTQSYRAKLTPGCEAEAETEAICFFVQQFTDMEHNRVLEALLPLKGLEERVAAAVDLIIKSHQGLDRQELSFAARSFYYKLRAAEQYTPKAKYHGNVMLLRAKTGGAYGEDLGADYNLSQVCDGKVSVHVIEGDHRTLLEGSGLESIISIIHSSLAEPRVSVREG
smiles,measurement,setting,value
O=C1C(=Cc2cn(-c3ccccc3)nc2-c2ccc(OCc3ccc(Cl)cc3)cc2)SC(=S)N1CCS(=O)(=O)O,IC50,[1],7.21 µM (active)
same,IC50,[2],1.35 µM (active)
CC(CC(=O)Nc1ccc(Cl)c(S(=O)(=O)N2CCOCC2)c1)c1ccccc1 (stereo not given),IC50,Galanin receptor type 3,1.21 µM (active)
same,EC50,cells,> 29.9 µM (inactive)
COc1ccc(-c2cc(C(=O)Nc3cccc(S(=O)(=O)NCc4ccco4)c3)c3ccccc3n2)cc1OC,EC50,[3],1.64 µM (active)
same,EC50,[4],> 60 µM (not active)
same,IC50,[5],13.8 µM (active)
same,IC50,[6],25.3 µM (active)
O=C(C1=C(O)C(=O)N(Cc2cccnc2)C1c1ccccn1)c1ccc(F)cc1 (stereo not given),IC50,Beta-lactamase [7],> 59.6 µM (inactive)
same,IC50,Beta-lactamase [8],> 59.6 µM (inactive)
same,IC50,Beta Lactamase [9],2.42 µM (active)
same,IC50,Beta-lactamase [10],> 59.6 µM (inactive)
same,IC50,Beta Lactamase [11],0.941 µM (active)
CC(=O)Nc1nc(-c2ccc(S(=O)(=O)N3CCOCC3)cc2)cs1,IC50,Fatty acid synthase,11.4 µM (active)
C[C@@H]1CCCCO[C@@H](CN(C)C(=O)Cc2ccccc2)[C@H](C)CN([C@H](C)CO)C(=O)c2cc(NS(=O)(=O)c3ccc(Cl)cc3)ccc2O1,AC50,A549,31.2 µM (active)
